Experimental data taken from patent US20040102431A1, “Substituted amino-aza-cycloalkanes useful against malaria” (priority 2000, published 2004).
Square brackets hold non-standard residues; d marks the D form. Peptide text beside a SMILES is read from it. * marks the point of attachment. Sta = CC(C)C[C@H](N)[C@@H](O)CC(=O)O; Isovaleryl = CC(C)CC(=O)*

Biological target: plasmepsin II (Plasmodium falciparum, UniProt P46925)
Assay: biochemical
Details: Additional Examples table; FRET, pH 5, 37° C., 40 min, substrate 1 μM; read-out: IC50 (nM) on plasmepsin II

Chain of plasmepsin II (P46925 125-453): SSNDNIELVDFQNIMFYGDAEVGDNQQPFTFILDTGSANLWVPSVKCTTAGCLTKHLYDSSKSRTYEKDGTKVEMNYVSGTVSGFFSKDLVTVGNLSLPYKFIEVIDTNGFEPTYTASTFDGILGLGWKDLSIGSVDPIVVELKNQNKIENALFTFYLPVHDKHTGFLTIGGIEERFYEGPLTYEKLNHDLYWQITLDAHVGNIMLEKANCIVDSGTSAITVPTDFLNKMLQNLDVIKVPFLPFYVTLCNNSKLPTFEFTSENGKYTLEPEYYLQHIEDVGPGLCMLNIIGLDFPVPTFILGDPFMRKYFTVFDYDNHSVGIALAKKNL

SMILES	IC50 [nM]
CCCCCc1ccc(C(=O)N(Cc2ccc(-c3ccccc3)cc2)C2CCN(Cc3ccc(F)cc3)CC2)cc1 [Example 101, N-Biphenyl-4-ylmethyl-N-[1-(4-fluorobenzyl)piperidin-4-yl]-4-pentylbenzamide]	385
CCCCCc1ccc(CN(Cc2ccc(OCc3ccc(F)cc3)cc2)C2CCN(Cc3ccccc3)CC2)cc1 [Example 102, (1-Benzylpiperidin-4-yl)-[4-(4-fluorobenzyloxy)benzyl]-(4-pentylbenzyl)amine]	414
CCCCCc1ccc(CN(Cc2ccc(OCc3ccccc3)cc2)C2CCN(Cc3ccccc3)CC2)cc1 [Example 103, (4-Benzyloxybenzyl)-(1-benzyl-piperidin-4-yl)-(4-pentylbenzyl)amine]	431
CCCCCc1ccc(C(=O)N(Cc2ccc(-c3ccc(N(C)C)cc3)cc2)C2CCN(Cc3ccccc3)CC2)cc1 [Example 106, N-(1-Benzylpiperidin-4-yl)-N-(4′-dimethylaminobiphenyl-4-ylmethyl)-4-pentylbenzamide]	461
CCCCCc1ccc(CN(Cc2ccc(-c3cncnc3)cc2)C2CCN(Cc3ccccc3)CC2)cc1 [Example 107, (1-Benzylpiperidin-4-yl)-(4-pentyl-benzyl)-(4-pyrimidin-5-ylbenzyl)amine]	618
CCCCCc1ccc(CN(Cc2ccc(-c3cccc(C(F)(F)F)c3)cc2)C2CCN(Cc3ccccc3)CC2)cc1 [Example 108, (1-Benzylpiperidin-4-yl)-(4-pentyl-benzyl)-(3′-trifluoromethyl-biphenyl-4-ylmethyl)amine]	634
CCCCCc1ccc(CN(Cc2ccc(-c3ccccc3F)cc2)C2CCN(Cc3ccccc3)CC2)cc1 [Example 109, (1-Benzylpiperidin-4-yl)-(2′-fluoro-biphenyl-4-ylmethyl)-(4-pentyl-benzyl)amine]	656
CCCCCc1ccc(C(=O)N(Cc2ccc(-c3ccccc3)cc2)C2CCN(Cc3ccc(OC(F)(F)F)cc3)CC2)cc1 [Example 110, N-Biphenyl-4-ylmethyl-4-pentyl-N-[1-(4-trifluoromethoxybenzyl)piperidin-4-yl]benzamide]	692
CCCCCc1ccc(C(=O)N(C2CCN(Cc3ccccc3)CC2)[C@H](CO)Cc2ccc(OCc3ccccc3)cc2)cc1 [Example 111, N-[(1S)-2-(4-Benzyloxyphenyl)-1-hydroxymethylethyl]-N-(1-benzyl-piperidin-4-yl)-4-pentylbenzamide]	749
CCCCCc1ccc(C(=O)N(Cc2ccc(OCc3ccccc3)cc2)C2CCN(CCc3ccccc3)CC2)cc1 [Example 112, N-(4-Benzyloxybenzyl)-4-pentyl-N-(1-phenethylpiperidin-4-yl)benzamide]	761
CCCCCc1ccc(C(=O)N(Cc2ccc(-c3cccc(OC(F)(F)F)c3)cc2)C2CCN(Cc3ccccc3)CC2)cc1 [Example 113, N-(1-Benzylpiperidin-4-yl)-4-pentyl-N-(3′-trifluoromethoxy-biphenyl-4-ylmethyl)benzamide]	816
CCCCCc1ccc(C(=O)N(Cc2ccc(OCc3ccccc3)cc2)[C@@H]2CCN(Cc3ccccc3)C2)cc1 [Example 114, N-(4-Benzyloxybenzyl)-N-((3R)-1-benzylpyrrolidin-3-yl)-4-pentyl-benzamide]	817
CCCCCc1ccc(C(=O)N(Cc2ccc(N(CCCC)CCCC)cc2)C2CCN(Cc3ccccc3)CC2)cc1 [Example 115, N-(1-Benzylpiperidin-4-yl)-N-(4-dibutylaminobenzyl)-4-pentyl-benzamide]	839
CCCCCc1ccc(C(=O)N(Cc2ccc(O)cc2)C2CCN(Cc3ccccc3)CC2)cc1 [Example 116, N-(1-Benzylpiperidin-4-yl)-N-(4-hydroxybenzyl)-4-pentyl-benzamide]	882
CCCCCC(=Cc1ccccc1)CN(C(=O)c1ccc(CCCCC)cc1)C1CCN(Cc2ccccc2)CC1 [Example 117, N-(1-Benzylpiperidin-4-yl)-4-pentyl-N-(2-pentyl-3-phenylallyl)benzamide]	933
CCCCCC12CCC(C(=O)N(Cc3ccc(-c4ccccc4)cc3)C3CCN(Cc4ccccc4)CC3)(CC1)CC2 [Example 118, 4-Pentylbicyclo[2.2.2]octane-1-carboxylic acid(1-benzylpiperidin-4-yl)-biphenyl-4-ylmethylamide]	942
CCCCCc1ccc(C(=O)N(Cc2ccc(-c3cccnc3)cc2)C2CCN(Cc3ccc(O)cc3)CC2)cc1 [N-[1-(4-Hydroxybenzyl)piperidin-4-yl]-4-pentyl-N-(4-pyridin-3-yl-benzyl)benzamide]	105

System: P. falciparum
Assay: not given
Details: cited from earlier work

SMILES	growth of P. falciparum in red blood cells in vitro
CC(C)CC(=O)N[C@H](C(=O)N[C@H](C(=O)N[C@@H](CC(C)C)[C@@H](O)CC(=O)N[C@@H](C)C(=O)N[C@@H](CC(C)C)[C@@H](O)CC(=O)O)C(C)C)C(C)C [Pepstatin] (Isovaleryl-VV[Sta]A[Sta]-OH)	inhibits the growth
